Patent US11530186B2, “Inhibitors for the β-catenin / T-cell factor protein-protein interaction” (H. LEE MOFFITT CANCER CENTER AND RESEARCH INSTITUTE, INC., priority 2018, dated 2022)
Where two headings read alike, the source gives them in different places.

Target: T1, β-catenin/Tcf protein-protein interaction (Homo sapiens, UniProt P35222)
T1 construct: Wild-type β-catenin (residues 138-781) were cloned into a pET-28b vector; 6×histidine (C); made in house; host or cells: E. coli BL21 DE3
T1 sequence (P35222 138-781): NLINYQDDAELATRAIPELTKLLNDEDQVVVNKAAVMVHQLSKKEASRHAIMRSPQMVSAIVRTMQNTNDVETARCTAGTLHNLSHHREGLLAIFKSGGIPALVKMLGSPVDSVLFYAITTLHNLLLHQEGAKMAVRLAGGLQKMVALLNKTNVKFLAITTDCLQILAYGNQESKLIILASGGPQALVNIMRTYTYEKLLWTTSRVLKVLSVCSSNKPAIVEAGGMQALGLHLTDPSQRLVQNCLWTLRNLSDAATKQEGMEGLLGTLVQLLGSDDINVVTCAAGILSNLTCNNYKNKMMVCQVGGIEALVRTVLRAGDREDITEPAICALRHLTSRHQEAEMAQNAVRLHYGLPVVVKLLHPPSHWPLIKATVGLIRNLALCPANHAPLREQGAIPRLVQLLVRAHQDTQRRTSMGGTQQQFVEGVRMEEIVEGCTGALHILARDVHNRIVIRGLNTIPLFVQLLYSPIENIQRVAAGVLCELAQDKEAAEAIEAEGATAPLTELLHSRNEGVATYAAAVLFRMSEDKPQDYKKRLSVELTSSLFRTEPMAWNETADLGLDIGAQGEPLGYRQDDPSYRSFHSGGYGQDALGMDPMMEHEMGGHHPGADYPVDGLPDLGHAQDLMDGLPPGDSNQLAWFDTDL
Experiment: FP competitive inhibition assay
Type: binding
Experimental: Protein Expression and Purification. Wild-type β-catenin (residues 138-781) were cloned into a pET-28b vector carrying a C-terminal 6×histidine (Novagen) and transformed into E. coli BL21 DE3 (Novagen). Cells were cultured in LB medium with 30 μg/mL kanamycin until the OD600 was approximately 0.8, and then protein expression was induced with 400 μM of IPTG at 20° C. overnight. Cells were lysed by sonication. The proteins were purified by Ni-NTA affinity chromatography (30210, Qiagen) and dialyzed against a buffer containing 20 mM of Tris (pH 8.8), 100 mM NaCl, 10% glycerol, and 3 mM DTT. The purity of β-catenin was set to >95% as determined by SDS-PAGE gel analysis. Native non-denaturing gel electrophoresis experiment and the thermal-shift assay on an iCycler iQ Real Time Detection System (Bio-Rad) were performed for each purified protein. In the thermal shift assay, protein unfolding was evaluated through measuring the fluorescence changes of fluorescent dye Sypro Orange with purified β-catenin proteins. A temperature increment of 1° C./min was applied to monitor protein stability and detect protein aggregation. CD spectra were measured on a J-815 spectropolarimeter (Jasco). All spectra were recorded using a 1 mm path-length quartz cell. The CD spectra were averaged over three scans, and the wavelength was scanned from 260 to 190 nm in step of 1 nm. All spectra were recorded at room temperature, and the baseline was corrected by subtracting the CD spectra of a blank control containing all of the substances except protein. Samples were prepared at a concentration around 1-5 μM in a buffer of 10 mM potassium phosphate and 100 mM potassium fluoride at pH 7.0 to ensure that the transmission of light through the sample was not restricted. All proteins were stable, and no aggregation was observed under storage or assay conditions. Proteins were aliquoted and stored at −80° C. C-terminally fluorescein-labeled human Tcf4 (residues 7-51) was synthesized and HPLC purified with purity >95%. The structures were validated by LC/MS (liquid chromatography/mass spectrometry).
FP Assays. The procedures for the FP competitive inhibition assays have been described previously (Zhang, M.; Huang, Z.; Yu, B.; Ji, H. New homogeneous high-throughput assays for inhibitors of β-catenin/Tcf protein-protein interactions Anal. Biochem. 2012, 424, 57-63; Zhang, M.; Catrow, J. L.; Ji, H. High-throughput selectivity assays for small-molecule inhibitors of β-catenin/T-cell factor protein-protein interactions. ACS Med. Chem. Lett. 2013, 4, 306-311). Briefly, all of the tested compounds were prepared as 10 mM DMSO stocks. In the primary screen, the concentrations of the compounds and DMSO were set to 50 μM and 1% (v/v). Only the compounds which FP signal decreases were greater than 50% in the single-point β-catenin/Tcf assay were evaluated by counter screen. […] In the FP competitive inhibition assay, 10 nM human β-catenin and 2.5 nM of C-terminally fluorescein-labeled human Tcf4 were incubated in an assay buffer of 137 mM NaCl, 2.7 mM KCl, 10 mM Na2HPO4, 2 mM KH2PO4, 100 μg/mL of bovine γ-globulin, and 0.01% Triton-X100 for 15 min at 4° C. Bovine γ-globulin and Triton-X100 were included in the assay buffer to decrease the likelihood of compound acting by aggregate formation. Different concentrations of the tested compounds in the assay buffer were added to each test plate to make a final volume of 100 μL. Each assay plate was covered black and gently mixed on an orbital shaker at 4° C. for 1.5 h to reach equilibrium before the polarization values were read. The IC50 value was determined by nonlinear least-square analysis of GraphPad Prism 5.0. The Ki values were derived (Nikolovska-Coleska, Z.; Wang, R.; Fang, X.; Pan, H.; Tomita, Y.; Li, P.; Roller, P. P.; Krajewski, K.; Saito, N. G.; Stuckey, J. A.; Wang, S. Development and optimization of a binding assay for the XIAP BIR3 domain using fluorescence polarization. Anal. Biochem. 2004, 332, 261-273). […]

[1] = Assay 1, mean ± SD (n = 3), read-out: Ki ± SD, Assay 1
[2] = Assay 2, mean ± SD (n = 3), read-out: Ki ± SD, Assay 2
[3] = Assay 3, mean ± SD (n = 3), read-out: Ki ± SD, Assay 3
[4] = Assay 4, mean ± SD (n = 3), read-out: Ki ± SD, Assay 4

Compound	Ki [1] [µM]	Ki [2] [µM]	Ki [3] [µM]	Ki [4] [µM]
COCCOc1ccc2sc(CCc3c(CCc4ccc(Cl)cc4)c4cc(C(=O)NCc5ccc(Cl)cc5)ccc4n3CCc3nn[nH]n3)nc2c1 [Compound 46, 1-(2-(2H-tetrazol-5-yl)ethyl)-N-(4-chlorobenzyl)-3-(4-chlorophenethyl)-2-(2-(5-(2-methoxy-ethoxy)benzo[d]thiazol-2-yl)ethyl)-1H-indole-5-carboxamide]	1.3 ± 0.4	–	–	–
COc1ccc2sc(CCc3c(CCc4ccc(Cl)cc4)c4cc(C(=O)O)ccc4n3CCc3nn[nH]n3)nc2c1 [Compound 31, 1-(2-(2H-tetrazol-5-yl)ethyl)-3-(4-chlorophenethyl)-2-(2-(5-methoxybenzo[d]thiazol-2-yl)ethyl)-1H-indole-5-carboxylic acid]	2 ± 0.4	4.1 ± 0.6	4.1 ± 1.2	1.6 ± 0.12
COc1ccc2sc(CCc3c(CCc4ccc(Cl)cc4)c4cc(C(=O)NCCc5ccc(Cl)cc5)ccc4n3CCc3nn[nH]n3)nc2c1 [Compound 49, 1-(2-(2H-tetrazol-5-yl)ethyl)-N,3-bis(4-chlorophenethyl)-2-(2-(5-methoxybenzo[d]thiazol-2-yl)ethyl)-1H-indole-5-carboxamide]	0.75 ± 0.23	3.2 ± 0.24	–	–
O=C(NCc1ccon1)c1ccc2c(c1)c(CCC1CCOCC1)c(-c1ccsc1)n2CCc1nn[nH]n1 [Compound 96, 1-(2-(2H-tetrazol-5-yl)ethyl)-N-(isoxazol-3-ylmethyl)-3-(2-(tetrahydro-2H-pyran-4-yl)ethyl)-2-(thiophen-3-yl)-1H-indole-5-carboxamide]	> 25	> 25	–	–
COc1ccc2sc(CCc3c(CCc4ccc(Cl)cc4)c4cc(C(=O)NCc5ccccc5Br)ccc4n3CCc3nn[nH]n3)nc2c1 [Compound 52, 1-(2-(2H-tetrazol-5-yl)ethyl)-N-(2-bromobenzyl)-3-(4-chlorophenethyl)-2-(2-(5-methoxybenzo[d]thiazol-2-yl)ethyl)-1H-indole-5-carboxamide]	1.5 ± 0.17	2.6 ± 0.59	–	–
O=C(O)c1ccc2c(c1)c(CCc1ccc(Cl)cc1)c(CCc1nc3cc(Cl)ccc3s1)n2CCc1nn[nH]n1 [Compound 30, 1-(2-(2H-tetrazol-5-yl)ethyl)-2-(2-(5-chlorobenzo[d]thiazol-2-yl)ethyl)-3-(4-chlorophenethyl)-1H-indole-5-carboxylic acid]	1.1 ± 0.27	1.6 ± 0.63	2.5 ± 1.5	–
COc1ccc2sc(CCc3c(CCc4ccc(Cl)cc4)c4cc(C(=O)N[C@H]5CC[C@H](N)CC5)ccc4n3CCc3nn[nH]n3)nc2c1 [Compound 69, (1r,4r)-4-(1-(2-(2H-tetrazol-5-yl)ethyl)-3-(4-chlorophenethyl)-2-(2-(5-methoxybenzo[d]thiazol-2-yl)ethyl)-1H-indole-5-carboxamido)cyclohexan-1-aminium]	> 24	> 22	–	–
COc1ccc2sc(CCc3c(CCc4ccc(Cl)cc4)c4cc(C(=O)NCc5ccsc5)ccc4n3CCc3nn[nH]n3)nc2c1 [Compound 59, 1-(2-(2H-tetrazol-5-yl)ethyl)-3-(4-chlorophenethyl)-2-(2-(5-methoxybenzo[d]thiazol-2-yl)ethyl)-N-(thiophen-3-ylmethyl)-1H-indole-5-carboxamide]	0.83 ± 0.048	3.7 ± 0.23	–	–
O=C(O)c1ccc2c(c1)c(CCC1CCOCC1)cn2CCc1nn[nH]n1 [Compound 21, 1-(2-(2H-tetrazol-5-yl)ethyl)-3-(2-(tetrahydro-2H-pyran-4-yl)ethyl)-1H-indole-5-carboxylic acid]	6.6 ± 0.28	7.6 ± 0.65	10 ± 0.95	5.7 ± 1.1
O=C(O)c1ccc2c(c1)c(CCc1ccc(F)cc1)c(CCc1nc3ccccc3s1)n2CCc1nn[nH]n1 [Compound 26, 1-(2-(2H-tetrazol-5-yl)ethyl)-2-(2-(benzo[d]thiazol-2-yl)ethyl)-3-(4-fluorophenethyl)-1H-indole-5-carboxylic acid]	6.7 ± 1.1	2.7 ± 0.54	–	–

Second part, the compound after the results:

Ki [1] [µM]	Ki [2] [µM]	Ki [3] [µM]	Ki [4] [µM]	Compound
31 ± 5.9	–	–	–	O=C(O)c1ccc2c(c1)c(CCc1ccc(C(F)(F)F)cc1)cn2CCc1nn[nH]n1 [Compound 9, 1-(2-(2H-tetrazol-5-yl)ethyl)-3-(4-(trifluoromethyl)phenethyl)-1H-indole-5-carboxylic acid]
29 ± 1.5	> 51	–	–	O=C(O)c1ccc2c(c1)c(CCc1nccs1)cn2CCc1nn[nH]n1 [Compound 15, 1-(2-(2H-tetrazol-5-yl)ethyl)-3-(2-(thiazol-2-yl)ethyl)-1H-indole-5-carboxylic acid]
35 ± 1.2	–	–	–	O=C(O)c1ccc2c(c1)c(CCc1ccc3c(c1)OCCO3)cn2CCc1nn[nH]n1 [Compound 22, 1-(2-(2H-tetrazol-5-yl)ethyl)-3-(2-(2,3-dihydrobenzo[b][1,4]dioxin-6-yl)ethyl)-1H-indole-5-carboxylic acid]
22 ± 3.1	–	–	–	O=C(O)c1ccc2c(c1)c(CCc1ccc(OC(F)(F)F)cc1)cn2CCc1nn[nH]n1 [Compound 10, 1-(2-(2H-tetrazol-5-yl)ethyl)-3-(4-(trifluoromethoxy)phenethyl)-1H-indole-5-carboxylic acid]
2.3 ± 0.54	0.87 ± 0.33	–	–	Cc1ccc(CCc2c(CCc3nc4ccccc4s3)n(CCc3nn[nH]n3)c3ccc(C(=O)O)cc23)cc1 [Compound 28, 1-(2-(2H-tetrazol-5-yl)ethyl)-2-(2-(benzo[d]thiazol-2-yl)ethyl)-3-(4-methylphenethyl)-1H-indole-5-carboxylic acid]
78 ± 10	–	–	–	COc1ccc(CCc2cn(CCc3nn[nH]n3)c3ccc(C(=O)O)cc23)cc1 [Compound 8]
27 ± 4	12 ± 2.2	–	–	O=C(O)c1ccc2c(c1)c(CCc1cccc(Cl)c1)cn2CCc1nn[nH]n1 [Compound 11, 1-(2-(2H-tetrazol-5-yl)ethyl)-3-(3-chlorophenethyl)-1H-indole-5-carboxylic acid]
27 ± 4	–	–	–	Cc1ccc(CCc2cn(CCc3nn[nH]n3)c3ccc(C(=O)O)cc23)cc1 [Compound 7, 1-(2-(2H-tetrazol-5-yl)ethyl)-3-(4-methylphenethyl)-1H-indole-5-carboxylic acid]
31 ± 5.8	–	–	–	CONC(=O)c1ccc2c(c1)c(CCc1ccc(C)cc1)c(-c1ccsc1)n2CCc1nn[nH]n1 [Compound 91, 1-(2-(2H-tetrazol-5-yl)ethyl)-N-methoxy-3-(4-methylphenethyl)-2-(thiophen-3-yl)-1H-indole-5-carboxamide]
